Data published in patent US20140235729A1, “BENZYLAMINE CONTAINING COMPOSITIONS AND METHODS FOR APPETITE SUPPRESSION” (Zija International, Inc., priority 2013, published 2014).

Legend:
appetite = appetite suppression after oral consumption by a subject; format: in vivo; conditions: consumed orally by a subject; 'results have shown'; listed as Moringine
Description: Generally speaking, most parts of the Moringa Oleifera tree are edible, with the leaves and seeds often being associated with most of the above-mentioned nutritional and health benefits.
However, the medium lethal dose (LD50) of benzylamine in subjects is understood to be about 600 milligrams (mg) per kilogram (kg) (i.e., 600 mg/kg). […] However, in accordance with the novel appetite suppression compositions and methods described herein, an effective amount of benzylamine that is far below the LD50 can be orally administered to adult humans for appetite suppression.

[1] = in subjects; 'understood to be'; cited from earlier work
[2] = 'thought to be' / 'believed to be'; cited from earlier work

## NCc1ccccc1 [benzylamine]
appetite
  appetite suppression: can suppress a subject's appetite
[1]
  medium lethal dose (LD50): about 600 mg/kg
[2]
  in vivo half-life: 15 to 30 min
